Laboratory results as given in article PMC10259803 (PLOS Pathogens, 2023).

Experiments:
[1] = test system: D39x comC^-; assay: in vitro recombination frequency, D39x comC^-; format: cell-based, Streptococcus pneumoniae; conditions: for reduction of recombination frequency upon incubation of modified CSP with trypsin-like proteases: both PPT and HAT, compared with unmodified CSP1; for HAT concentration to reduce the recombination frequency to below 5% of 0 trypsin: CSP incubated with HAT 30 min; for HAT concentration to reduce the recombination frequency to below 5% of 0 trypsin / PPT concentration to reduce the recombination frequency to below 5% of 0 trypsin: room temperature; for PPT concentration to reduce the recombination frequency to below 5% of 0 trypsin: CSP incubated with PPT 30 min
Experimental: (§1) During culture incubation, porcine pancreatic trypsin (PPT; Sigma #T4799) was reconstituted in Hank’s balanced salt solution (Gibco) and incubated with either water or 4-(2-Aminoethyl) benzenesulfonyl fluoride hydrochloride (AEBSF; Cayman #14321) in a total volume of 50μL 30mM Tris, pH 8.5 and incubated for 15 minutes, room temperature. CSP1 or CSP2 was added, followed by incubation for 30 minutes, room temperature. When the culture reached OD620~0.08, 1 mL of culture was transferred to the PPT-AEBSF-CSP mixture and 2 μg of D39 Tn-seq library gDNA (D39 strains) or 2 μg of TIGR4 Tn-seq library gDNA (TIGR4 strains) was added. […] Upon addition of the culture, the final concentration of PPT ranged from 0–10 μg/mL, AEBSF was 0.1 mM, CSP was 3 μg/mL, and gDNA was 2 μg/mL. The transformation was incubated for 3 hours at 37°C, 5% CO2, followed by serial dilution and plating on two TSA blood plates and two TSA blood plates supplemented with 200 μg/mL spectinomycin. To observe low-frequency recombination events, 200 μL of the transformation was also spread plated on two TSA blood plates supplemented with 200 μg/mL spectinomycin. For transformations with HAT incubated CSP, HAT (Bio-techne R&D #2695-SE-010) was reconstituted in 25mM Tris, 150mM NaCl, pH 7.5. All incubation times and final concentrations were the same as for PPT; however, the volumes were 1/10th as that for PPT. For both PPT and HAT, the experiment was repeated at least three times.

[2] = test system: serine proteases in mouse lung homogenates and sera; assay: Protease levels (fluorescence of substrate BOC); format: biochemical; conditions: for Protease levels in lungs and sera of treated mice: poly (I:C) vs control mice (lungs and sera), AEBSF prior to poly (I:C) vs poly (I:C) alone (lungs)
Experimental: For ex vivo experiments, the protease levels were measured from the same lung homogenate used in the ex vivo recombination frequency experiment, adapting the protocol from the HAT manufacturer (Bio-techne R&D). After the lungs were incubated with either water or AEBSF, 50 μL of lung homogenate mixture was transferred to a black, 96-well plate. 50 μL of substrate t-Butyloxycarbonyl Phe-Ser-Arg 7-amino-4methyl coumarin (Bachem # I1400) was added directly to the well, incubated for 10 minutes at room temperature, and fluorescence (380 excitation; 460 emission) was detected in a Biotek Cytation 3. Protease levels of lung homogenates incubated with 1 mM and 2 mM AEBSF were compared to that incubated with 0 mM AEBSF using one-way ANOVA and correlation between protease levels and recombination frequency was compared using two-tailed spearman in Graphpad 6.
For in vivo experiments, homogenized lungs were further clarified after plating on TSA plates via centrifugation at 10,000xg, 5min. Sera was separated from whole blood via centrifugation at 10,000xg, 5 min in sera-collection tubes. The clarified homogenates and sera were transferred to a black, 96-well plate and 50 μL of substrate t-Butyloxycarbonyl Phe-Ser-Arg 7-amino-4methyl coumarin was added directly to the well and fluorescence (380 excitation; 460 emission) was detected in a Biotek Cytation 3. Protease levels of all groups were compared pairwise for each tissue using unpaired t test and correlation between protease levels and recombination frequency was compared using two-tailed spearman in Graphpad 6.

[3] = test system: S. pneumoniae D39; assay: in vivo recombination frequency, poly (I:C) / AEBSF treated mice; conditions: Balb/cJ mice; poly (I:C) 50 μL of 1 mg/mL IN daily 4 days vs vehicle; AEBSF 125 μg IN prior to poly (I:C) vs poly (I:C) without inhibitor; 20 h after challenge
[4] = test system: D39x; assay: ex vivo recombination frequency with mouse lung homogenate, D39x; format: cell-based, Streptococcus pneumoniae; conditions: for ex vivo recombination frequency with homogenized lungs of mice treated in vivo: poly (I:C) 50 μL of 1 mg/mL IN daily 4 days, AEBSF 125 μg IN daily 3 days along with poly (I:C), 0 mM AEBSF ex vivo
Experimental: To determine the impact of proteases from the lungs of mice on recombination frequency, a similar experimental setup as the in vitro recombination frequency was performed. […] During culture incubation, the lungs of 10-week-old female Balb/cJ mice (N = 7) were harvested and homogenized in 600 μL PBS. Lung homogenate was incubated with either water or AEBSF for 30 minutes, room temperature. 60 μL of lung homogenate-AEBSF mixture was transferred to a new tube. Addition of CSP1, culture, and gDNA and transformation was performed in the same manner as the in vitro recombination frequency. The final concentration of CSP was 3 μg/mL and gDNA was 2 μg/mL. The final concentration of AEBSF was 0mM, 1 mM, or 2mM. The lung from each mouse was divided into six transformations: D39x with lungs incubated with 0mM, 1 mM, or 2mM AEBSF and D39x comC^- with lungs incubated with 0mM, 1 mM, or 2mM AEBSF. As a control, the same culture of D39x and D39x comC^- were transformed with gDNA and CSP1 incubated with AEBSF in PBS. Recombination frequency of the transformation with CSP1 incubated with 1 mM and with 2 mM AEBSF were compared to that incubated with 0 mM AEBSF using Kruskal-Wallis one-way ANOVA in Graphpad 6.
Lungs were harvested and homogenized in 600 μL PBS. The homogenates from all lungs were subjected to the ex vivo protocol described above and the recombination frequency of D39x and D39x comC^- subjected to lungs incubated with 0mM, 1 mM, or 2mM AEBSF and CSP1 was determined.

[5] = test system: DLA3; assay: Growth (OD620) of DLA3; conditions: DLA3 with CSP1 incubated with trypsin with and without AEBSF (S1 Fig)
Experimental: A similar protocol as the in vitro recombination frequency was followed. DLA3 was inoculated in C+Y at OD620~0.03. Either PPT or HAT was incubated with water or AEBSF for 15 minutes, room temperature, followed by incubation with CSP1 for thirty minutes in a total volume of 5 μL 30mM Tris, pH 8.5. When the culture reached OD620~0.08, cells were pelleted at 6,000xg, 5 min and resuspended in fresh C+Y. 100 μL of the culture was added to the Trypsin-AEBSF-CSP mixture, followed by transfer to a white-walled, clear-bottom 96-well plate and addition of 5 μL of 10 mg/mL luciferin (Sigma #L6882). Luminescence and OD620 measurements were taken every 30 minutes in a Biotek Cytation 3. Increasing concentrations of protease within each group (0 mM AEBSF or 0.1 mM AEBSF) were compared using two-way ANOVA in Graphpad 6.
Absorbance at OD620 of DLA3 grown in the presence of CSP1 incubated with increasing concentrations of trypsin with and without inhibitor AEBSF. Incubation of CSP1 with PPT (A) without AEBSF or (B) with AEBSF. Incubation of CSP1 with HAT (C) without AEBSF or (D) with AEBSF. Experiment was repeated in triplicate. The mean value of OD620 of each 30-minute timepoint is reported; error bars are SEM.

[6] = test system: DLA3; assay: Luminescence assay, DLA3 (PssbB-luc competence reporter); conditions: CSP1; 0.1 mM AEBSF
Experimental: DLA3 was inoculated in C+Y at OD620~0.03. Either PPT or HAT was incubated with water or AEBSF for 15 minutes, room temperature, followed by incubation with CSP1 for thirty minutes in a total volume of 5 μL 30mM Tris, pH 8.5. When the culture reached OD620~0.08, cells were pelleted at 6,000xg, 5 min and resuspended in fresh C+Y. 100 μL of the culture was added to the Trypsin-AEBSF-CSP mixture, followed by transfer to a white-walled, clear-bottom 96-well plate and addition of 5 μL of 10 mg/mL luciferin (Sigma #L6882). Luminescence and OD620 measurements were taken every 30 minutes in a Biotek Cytation 3.

[7] = test system: TIGR4; assay: in vitro recombination frequency, TIGR4; format: cell-based, Streptococcus pneumoniae; conditions: CSP2; PPT or HAT; 0.1 mM AEBSF
Experimental: as §1, with “For both PPT and HAT, the experiment was repeated at least three times.” left out

[8] = biological target: T1, porcine trypsin (Sus scrofa, UniProt P00761); assay: Mass spectrometry of CSP cleavage by porcine trypsin; format: in vitro ADME; conditions: 30 min, room temperature
T1 construct: purchased Promega V5280
T1 sequence (P00761 9-231): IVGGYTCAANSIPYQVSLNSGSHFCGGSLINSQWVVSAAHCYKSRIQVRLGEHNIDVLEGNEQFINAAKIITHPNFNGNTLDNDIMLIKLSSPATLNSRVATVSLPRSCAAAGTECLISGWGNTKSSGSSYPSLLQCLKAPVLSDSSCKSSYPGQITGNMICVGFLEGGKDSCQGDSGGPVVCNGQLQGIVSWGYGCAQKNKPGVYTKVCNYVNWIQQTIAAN
Experimental: Fig 1 Serine proteases cleave competence-stimulating peptide of S. pneumoniae. (A) Sequence of competence-stimulating peptide 1 (CSP1) and peptide 2 (CSP2). Red arrows indicate potential cleavage sites by trypsin-like serine proteases. (B) Mass spectrometry analysis of cleaved residues of CSP1 upon incubation with no trypsin (grey) or with porcine trypsin (black) for 30 minutes. (C) Mass spectrometry analysis of cleaved residues of CSP1 upon incubation with no trypsin (grey) or with human airway trypsin (HAT) (black) for 30 minutes. (D) Mass spectrometry analysis of cleaved residues of CSP2 upon incubation with no trypsin (grey) or with porcine trypsin (black) for 30 minutes. (E) Mass spectrometry analysis of cleaved residues of CSP2 upon incubation with no trypsin (grey) or with HAT (black) for 30 minutes. (B-E) The fraction of each peptide detected by mass spectrometry was calculated by dividing the area of the cleaved peptide by the total area of all peptides. In the case of two cleavage sites on the same peptide, the fraction was equally attributed to both cleavage sites. […]
CSPs was incubated with either porcine trypsin gold (Promega #V5280) or human airway trypsin-like protease (HAT; Bio-techne R&D #2695-SE-010) for thirty minutes, room temperature. […] The eluted peptides were ionized by electrospray ionization and detected by an inline mass spectrometer (Thermo Orbitrap Fusion). […]

[9] = test system: porcine trypsin gold; assay: porcine trypsin gold (Promega #V5280); conditions: room temperature, up to thirty minutes

Compound: CC[C@H](C)[C@H](NC(=O)[C@H](Cc1ccccc1)NC(=O)[C@H](CC(=O)O)NC(=O)[C@H](CCCNC(=N)N)NC(=O)[C@H](Cc1ccccc1)NC(=O)[C@H](Cc1ccccc1)NC(=O)[C@H](Cc1c[nH]cn1)NC(=O)[C@H](CO)NC(=O)[C@H](CC(C)C)NC(=O)[C@H](CCCNC(=N)N)NC(=O)[C@H](CCSC)NC(=O)[C@@H](N)CCC(=O)O)C(=O)N[C@@H](CC(C)C)C(=O)N[C@@H](CCC(N)=O)C(=O)N[C@@H](CCCNC(=N)N)C(=O)N[C@@H](CCCCN)C(=O)N[C@@H](CCCCN)C(=O)O [K6H]
- reduction of recombination frequency upon incubation of modified CSP with trypsin-like proteases [1]: similarly to that of unmodified CSP1

Compound: poly (I:C)
- Protease levels in lungs and sera of treated mice ([2]; BOC substrate fluorescence): higher
- protease levels in inflamed lungs, equated to recombinant HAT ([2]; recombinant HAT standard, 35000 RFU = 0.05 μg/mL, non-inflamed lungs 0.079 (±0.010)): 0.168 (±0.012) μg/mL
- in vivo recombination frequency of D39 in lungs and blood [3]: significant reduction
- ex vivo recombination frequency with homogenized lungs of mice treated in vivo [4]: reduced

Compound: CC[C@H](C)[C@H](NC(=O)[C@H](Cc1ccccc1)NC(=O)[C@H](CC(=O)O)NC(=O)[C@H](Cc1c[nH]cn1)NC(=O)[C@H](Cc1ccccc1)NC(=O)[C@H](Cc1ccccc1)NC(=O)[C@H](CCCCN)NC(=O)[C@H](CO)NC(=O)[C@H](CC(C)C)NC(=O)[C@H](CCCNC(=N)N)NC(=O)[C@H](CCSC)NC(=O)[C@@H](N)CCC(=O)O)C(=O)N[C@@H](CC(C)C)C(=O)N[C@@H](CCC(N)=O)C(=O)N[C@@H](CCCNC(=N)N)C(=O)N[C@@H](CCCCN)C(=O)N[C@@H](CCCCN)C(=O)O [R9H]
- HAT concentration to reduce recombination frequency below 5% of 0 trypsin: times less compared to unmodified CSP1 ([1]; CSP incubated with HAT): 2 times
- HAT concentration to reduce the recombination frequency to below 5% of 0 trypsin [1]: 0.5 µg/mL
- PPT concentration to reduce recombination frequency below 5% of 0 trypsin: times less compared to unmodified CSP1 ([1]; CSP incubated with PPT): 5 times
- PPT concentration to reduce the recombination frequency to below 5% of 0 trypsin [1]: 0.01 µg/mL
- reduction of recombination frequency upon incubation of modified CSP with trypsin-like proteases [1]: to a greater extent than the unmodified CSP1

Compound: Cl.NCCc1ccc(S(=O)(=O)F)cc1 [AEBSF, 4-(2-Aminoethyl) benzenesulfonyl fluoride hydrochloride]
- Growth of S. pneumoniae (OD620) [5]: not reduced
- PPT-caused reduction of DLA3 luminescence when PPT was pre-incubated with AEBSF [6]: abrogated
- levels of serine proteases in the lung homogenates ([2]; lung homogenate incubated with 1 or 2 mM AEBSF, BOC substrate fluorescence): decreased
- Protease levels in lungs and sera of treated mice ([2]; BOC substrate fluorescence): reduced
- in vivo recombination frequency of D39 in lungs and blood [3]: higher frequency
- recombination frequency with CSP1 incubated with PPT or HAT pre-incubated with AEBSF ([1]; 0.1 mM AEBSF, protease pre-incubated 15 min): at a similar level as that of the no trypsin control
- recombination frequency with CSP1 incubated with AEBSF alone ([4]; CSP1 in PBS with increasing AEBSF, no lung homogenate, D39x and D39x comC^- (S3 Fig)): did not increase
- recombination frequency with CSP1 incubated with lung homogenates treated with AEBSF ([4]; mouse lung homogenate incubated 30 min with 1 or 2 mM AEBSF vs 0 mM): increased
- ex vivo recombination frequency with homogenized lungs of mice treated in vivo [4]: restored
- protease-caused reduction of recombination frequency when proteases were incubated with AEBSF [7]: abrogated

Compound: CC[C@H](C)[C@H](NC(=O)[C@H](Cc1ccccc1)NC(=O)[C@H](CC(=O)O)NC(=O)[C@H](CCCNC(=N)N)NC(=O)[C@H](Cc1ccccc1)NC(=O)[C@H](Cc1ccccc1)NC(=O)[C@H](CCCCN)NC(=O)[C@H](CO)NC(=O)[C@H](CC(C)C)NC(=O)[C@H](CCCNC(=N)N)NC(=O)[C@H](CCSC)NC(=O)[C@@H](N)CCC(=O)O)C(=O)N[C@@H](CC(C)C)C(=O)N[C@@H](CCC(N)=O)C(=O)N[C@@H](CCCNC(=N)N)C(=O)N[C@@H](CCCCN)C(=O)N[C@@H](CCCCN)C(=O)O [CSP1]
- preferential cleavage site, porcine trypsin [8]: R15 followed by K6 and R9
- HAT concentration to reduce the recombination frequency to below 5% of 0 trypsin [1]: 1 µg/mL
- PPT concentration to reduce the recombination frequency to below 5% of 0 trypsin [1]: 0.05 µg/mL
- recombination frequency after incubation of CSP with mouse lung homogenate ([4]; mouse lung homogenate, ex vivo): reduced

Compound: EMRISRIILDFLFLRKK
- cleaved bond [9]: R6-I7 and E-M and D-F

Compound: CC[C@H](C)[C@H](NC(=O)[C@H](Cc1ccccc1)NC(=O)[C@H](CC(=O)O)NC(=O)[C@H](CCCNC(=N)N)NC(=O)[C@H](Cc1ccccc1)NC(=O)[C@H](Cc1ccccc1)NC(=O)[C@H](CCCCN)NC(=O)[C@H](CO)NC(=O)[C@H](CC(C)C)NC(=O)[C@H](CCCNC(=N)N)NC(=O)[C@H](CCSC)NC(=O)[C@@H](N)CCC(=O)O)C(=O)N[C@@H](CC(C)C)C(=O)N[C@@H](CCC(N)=O)C(=O)N[C@@H](Cc1c[nH]cn1)C(=O)N[C@@H](CCCCN)C(=O)N[C@@H](CCCCN)C(=O)O [R15H]
- reduction of recombination frequency upon incubation of modified CSP with trypsin-like proteases [1]: similarly to that of unmodified CSP1
